Assay results as given in patent US20180118718A1, “Substituted Quinoxaline Derivatives” (Selvita S.A., priority 2015, published 2018).

Target: T1, Human recombinant His-tagged PFKFB3 (Homo sapiens, UniProt Q16875)
T1 construct: His; made in house
Assay: PFKFB3 IC50 Determination Assay (in vitro kinase assay, modified ADP-Glo system)
Format: biochemical
Details: ATP 20 μM and fructose-6-phosphate 2 μM (Km), 25 nM PFKFB3, 2 h, rt, ADP-Glo luminescence
Summary of the method: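 In-house His-tagged human PFKFB3 phosphorylates fructose-6-phosphate with ATP and substrate at Km; ADP measured by luminescence with 5x-diluted ADP-Glo reagents. Compounds tested at 10 concentrations, routinely 100 μM to 1 nM, in duplicate, 6.7% final DMSO. Data normalized to no-substrate control, expressed as % positive control; IC50 by four-parameter fit.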

T1 sequence (Q16875 whole entry): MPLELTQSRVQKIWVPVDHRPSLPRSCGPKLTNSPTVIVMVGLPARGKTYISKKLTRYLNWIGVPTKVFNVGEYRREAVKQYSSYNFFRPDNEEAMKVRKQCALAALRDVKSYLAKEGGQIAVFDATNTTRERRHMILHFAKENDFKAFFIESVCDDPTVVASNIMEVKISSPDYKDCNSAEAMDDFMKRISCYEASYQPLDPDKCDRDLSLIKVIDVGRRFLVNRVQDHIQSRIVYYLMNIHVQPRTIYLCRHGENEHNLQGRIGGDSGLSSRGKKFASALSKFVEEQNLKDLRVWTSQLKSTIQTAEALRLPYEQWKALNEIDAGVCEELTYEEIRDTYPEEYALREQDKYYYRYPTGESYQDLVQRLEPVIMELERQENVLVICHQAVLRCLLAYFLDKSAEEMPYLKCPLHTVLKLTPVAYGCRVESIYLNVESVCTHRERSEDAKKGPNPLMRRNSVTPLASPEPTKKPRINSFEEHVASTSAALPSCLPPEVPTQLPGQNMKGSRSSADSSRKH

| IC50 [µM] | SMILES |
| --- | --- |
| 0.001 to 1 | Cc1csc2ccc(-c3cc(Nc4ccccc4S(=O)(=O)NC4CCN(C)C4)cc4nccnc34)cc12 (centres unmarked) [Example 199, 2-{[8-(3-Methyl-1-benzothiophen-5-yl)quinoxalin-6-yl]amino}-N-(1-methylpyrrolidin-3-yl)benzene-1-sulfonamide] |
| 0.001 to 1 | Cn1ccc2ccc(-c3cc(Nc4cnccc4-c4nn[nH]n4)cc4nccnc34)cc21 [Example 68, 8-(1-Methyl-1H-indol-6-yl)-N-[4-(1H-1,2,3,4-tetrazol-5-yl)pyridin-3-yl]quinoxalin-6-amine] |
| 10 to 100 | Cn1nnc2cc(-c3cc(Nc4cnccc4S(C)(=O)=O)cc4nccnc34)ccc21 [Example 167, N-(4-methanesulfonylpyridin-3-yl)-8-(1-methyl-1H-1,2,3-benzotriazol-5-yl)quinoxalin-6-amine] |
| 10 to 100 | CS(=O)(=O)c1ccncc1Nc1cc(-c2cccc(-c3cn[nH]n3)c2)c2nccnc2c1 [Example 48, N-(4-Methanesulfonylpyridin-3-yl)-8-[3-(1H-1,2,3-triazol-4-yl)phenyl]quinoxalin-6-amine] |
| 10 to 100 | Cn1ccc2cc(-c3cc(Nc4cnccc4Cl)cc4nccnc34)ccc21 [Example 30, N-(4-Chloropyridin-3-yl)-8-(1-methyl-1H-indol-5-yl)quinoxalin-6-amine] |
| 10 to 100 | Cn1cc(-c2ccncc2Nc2cc(-c3ccc4c(ccn4C)c3)c3nccnc3c2)cn1 [Example 31, 8-(1-Methyl-1H-indol-5-yl)-N-[4-(1-methyl-1H-pyrazol-4-yl)pyridin-3-yl]quinoxalin-6-amine] |
| 10 to 100 | CC(C)Oc1cccc(-c2cc(Nc3cnccc3S(C)(=O)=O)cc3nccnc23)c1 [Example 130, N-(4-Methanesulfonylpyridin-3-yl)-8-[3-(propan-2-yloxy)phenyl]quinoxalin-6-amine] |
| 10 to 100 | CS(=O)(=O)c1ccncc1Nc1cc(-c2ccc(NC(=O)C3CCCN3)cc2)c2nccnc2c1 (centres unmarked) [Example 164, N-(4-{7-[(4-methanesulfonylpyridin-3-yl)amino]quinoxalin-5-yl}phenyl)pyrrolidine-2-carboxamide] |
| 0.001 to 1 | Cn1ccc2ccc(-c3cc(Nc4cncnc4C(N)=O)cc4nccnc34)cc21 [Example 149, 5-{[8-(1-methyl-1H-indol-6-yl)quinoxalin-6-yl]amino}pyrimidine-4-carboxamide] |
| 1 to 10 | COc1ccc(Cl)c(-c2cc(Nc3cnccc3S(C)(=O)=O)cc3nccnc23)c1 [Example 5, 8-(2-Chloro-5-methoxyphenyl)-N-(4-methanesulfonylpyridin-3-yl)quinoxalin-6-amine] |
| 1 to 10 | CC(=O)Nc1ccc(S(C)(=O)=O)c(Nc2cc(-c3ccc4ccn(C)c4c3)c3nccnc3c2)c1 [Example 41, N-(4-Methanesulfonyl-3-{[8-(1-methyl-1H-indol-6-yl)quinoxalin-6-yl]amino}phenyl)acetamide] |
